Measured values as given in ChEMBL document CHEMBL1201862, “PubChem BioAssay data set” (2004).
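In this assay, cells in 96-well plates receive the compound at five concentrations for 48 hours. Endpoints are linearly interpolated between the surrounding concentrations. GI50 marks 50% less growth.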 Calls of active or inactive are those of the source. No stated cut-off is given here; in the data, active = GI50 up to about 1.1 µM and inactive = higher.

Tests used:
Experiment in all cases: inhibition of tumour cell growth, NCI panel, 48 h
M14 = system: M14
OVCAR-8 = system: OVCAR-8
HL-60 = system: HL-60
A498 = system: A498
SW-620 = system: SW-620
MDA-MB-435 = system: MDA-MB-435
OVCAR-4 = system: OVCAR-4
SF-295 = system: SF-295
SNB-75 = system: SNB-75
OVCAR-5 = system: OVCAR-5
HOP-92 = system: HOP-92
DU-145 = system: DU-145
SF-539 = system: SF-539
786-0 = system: 786-0
NCI-H226 = system: NCI-H226
TK-10 = system: TK-10
CCRF-CEM = system: CCRF-CEM
MOLT-4 = system: MOLT-4
A549 = system: A549
NCI-H522 = system: NCI-H522

| Structure (SMILES) | GI50 (M14) | GI50 (OVCAR-8) | GI50 (HL-60) | GI50 (A498) | GI50 (SW-620) | GI50 (MDA-MB-435) | GI50 (OVCAR-4) | GI50 (SF-295) | GI50 (SNB-75) | GI50 (OVCAR-5) | GI50 (HOP-92) | GI50 (DU-145) | GI50 (SF-539) | GI50 (786-0) | GI50 (NCI-H226) | GI50 (TK-10) | GI50 (CCRF-CEM) | GI50 (MOLT-4) | GI50 (A549) | GI50 (NCI-H522) |
| --- | --- | --- | --- | --- | --- | --- | --- | --- | --- | --- | --- | --- | --- | --- | --- | --- | --- | --- | --- | --- |
| C=C[C@H]1CN2CCc3c([nH]c4c([C@@H]5CCCN5C)c(O)ccc34)[C@@H]2C[C@@H]1C[C@H]1c2[nH]c3ccccc3c2CCN1C | 0.307 µM (active) | 1.69 µM (inactive) | 0.409 µM (active) | 1.63 µM (inactive) | 1.23 µM (inactive) | 1.48 µM (inactive) | 1.42 µM (inactive) | 1.01 µM (active) | 0.813 µM (active) | 1.85 µM (inactive) | 1.19 µM (inactive) | 1.48 µM (inactive) | 1.57 µM (inactive) | 0.437 µM (active) | 1.67 µM (inactive) | 1.59 µM (inactive) | 0.188 µM (active) | 0.316 µM (active) | 0.764 µM (active) |  |
| Cc1ccc(C(=O)N/N=C(\N=N\c2cccc([N+](=O)[O-])c2)c2ccc(N(CCC#N)CCC#N)cc2C)cc1 | 33.4 µM (inactive) | 23.2 µM (inactive) | 12.9 µM (inactive) | 25.8 µM (inactive) | 38.7 µM (inactive) | 18.1 µM (inactive) | 23.7 µM (inactive) | 26.9 µM (inactive) | 21.1 µM (inactive) | 59.4 µM (inactive) | 45.9 µM (inactive) | 29 µM (inactive) | 4.58 µM (inactive) | 34.4 µM (inactive) |  | 45.1 µM (inactive) | 24.8 µM (inactive) | 24 µM (inactive) | 31.9 µM (inactive) | 20.4 µM (inactive) |
| O=C1NC(=O)/C(=C/c2ccc(S(=O)(=O)N/N=C/c3ccccc3)cc2)N1 | > 100 µM (inactive) | > 100 µM (inactive) | > 100 µM (inactive) | 2.75 µM (inactive) | > 100 µM (inactive) | > 100 µM (inactive) | > 100 µM (inactive) | > 100 µM (inactive) | > 100 µM (inactive) | > 100 µM (inactive) | > 100 µM (inactive) | > 100 µM (inactive) |  | > 100 µM (inactive) | > 100 µM (inactive) | > 100 µM (inactive) | > 100 µM (inactive) | > 100 µM (inactive) | > 100 µM (inactive) |  |
| Cc1c2c(n(CCc3ccccc3)c1C)N(C)N=C(C#N)S2(=O)=O | > 100 µM (inactive) | > 100 µM (inactive) |  | > 10 µM (inactive) | > 100 µM (inactive) | > 100 µM (inactive) | > 100 µM (inactive) | > 100 µM (inactive) | > 100 µM (inactive) | > 100 µM (inactive) |  | > 100 µM (inactive) | 7.69 µM (inactive) | > 100 µM (inactive) | > 100 µM (inactive) | > 100 µM (inactive) |  | > 100 µM (inactive) | > 100 µM (inactive) | > 100 µM (inactive) |
| CC1(C)N=C(C2CCCN2C(=O)OCc2ccccc2)OC1=O (centres undefined) | > 100 µM (inactive) | > 100 µM (inactive) | > 100 µM (inactive) | > 100 µM (inactive) | > 100 µM (inactive) | > 100 µM (inactive) |  | > 100 µM (inactive) | > 100 µM (inactive) | > 100 µM (inactive) |  | > 100 µM (inactive) | > 100 µM (inactive) | > 100 µM (inactive) | > 100 µM (inactive) | > 100 µM (inactive) | > 100 µM (inactive) | > 100 µM (inactive) | > 100 µM (inactive) | > 100 µM (inactive) |
| Cn1c(=O)c2c(nc(N/N=C3/SCC(=O)N3Cc3ccccc3)n2C)n(C)c1=O | > 100 µM (inactive) | > 100 µM (inactive) |  | > 100 µM (inactive) |  | > 100 µM (inactive) | 26.4 µM (inactive) | > 100 µM (inactive) |  | > 100 µM (inactive) | 5.9 µM (inactive) | > 100 µM (inactive) | 25.6 µM (inactive) | > 100 µM (inactive) | > 100 µM (inactive) | > 100 µM (inactive) | 47.9 µM (inactive) |  | 89.5 µM (inactive) | 71.4 µM (inactive) |
| CC(=O)O[C@H]1[C@H](OC(=O)CC(C)(O)CC(=O)O)C[C@]2(C)C3=C(CCC2C1(C)C)[C@]1(C)CC[C@H]([C@H]2CC[C@H](C(C)(C)O)OC2O)[C@@]1(C)[C@@H](O)C3 (some centres undefined) | 17.8 µM (inactive) | 18.7 µM (inactive) | 17.7 µM (inactive) | 12.9 µM (inactive) | 14.1 µM (inactive) | 19.1 µM (inactive) | 19.7 µM (inactive) | 18.3 µM (inactive) |  | 17.3 µM (inactive) | 16.9 µM (inactive) | 25.8 µM (inactive) |  | 18.4 µM (inactive) | 23.8 µM (inactive) | 30.9 µM (inactive) | 22 µM (inactive) | 19 µM (inactive) | 32.4 µM (inactive) |  |
| Cc1cc(NC2=NCCO2)c2c(c1C)CCCC2 | 11.1 µM (inactive) | 25.4 µM (inactive) | 10.6 µM (inactive) | 13.6 µM (inactive) | 27.1 µM (inactive) | 14.4 µM (inactive) | 15.7 µM (inactive) | 12.6 µM (inactive) | 19.2 µM (inactive) | 17.1 µM (inactive) | 0.906 µM (active) | 27.5 µM (inactive) | 0.0536 µM (active) | 17.2 µM (inactive) | 1.27 µM (inactive) | 33.7 µM (inactive) | 19 µM (inactive) | 17.4 µM (inactive) | 29.6 µM (inactive) |  |
| O=C(O)Cc1cccc2c(=O)c3cccc([N+](=O)[O-])c3[nH]c12 | 27.8 µM (inactive) | > 100 µM (inactive) | > 100 µM (inactive) | > 100 µM (inactive) | > 100 µM (inactive) | > 100 µM (inactive) | 38.1 µM (inactive) | > 100 µM (inactive) | 24.2 µM (inactive) | 36.5 µM (inactive) | > 100 µM (inactive) | 58.5 µM (inactive) | 29.7 µM (inactive) | > 100 µM (inactive) |  | > 100 µM (inactive) | > 100 µM (inactive) | > 100 µM (inactive) | > 100 µM (inactive) | 63.2 µM (inactive) |
| O=c1cccc2n1C[C@H]1CNC[C@H]2C1 | > 100 µM (inactive) | > 100 µM (inactive) | > 100 µM (inactive) | > 100 µM (inactive) | > 100 µM (inactive) | > 100 µM (inactive) | > 100 µM (inactive) | > 100 µM (inactive) | > 100 µM (inactive) | > 100 µM (inactive) | > 100 µM (inactive) | > 100 µM (inactive) | > 100 µM (inactive) | > 100 µM (inactive) | > 100 µM (inactive) | > 100 µM (inactive) | > 100 µM (inactive) | > 100 µM (inactive) | > 100 µM (inactive) |  |
| CCCCN=C(OC1C=CCCC1)SC (centres undefined) | > 100 µM (inactive) | > 100 µM (inactive) | > 100 µM (inactive) | 51.8 µM (inactive) | > 100 µM (inactive) | > 100 µM (inactive) | > 100 µM (inactive) | > 100 µM (inactive) | 51.9 µM (inactive) | > 100 µM (inactive) | 43.4 µM (inactive) | > 100 µM (inactive) |  | > 100 µM (inactive) | > 100 µM (inactive) | > 100 µM (inactive) | > 100 µM (inactive) | > 100 µM (inactive) | > 100 µM (inactive) |  |
